“Also recorded” adds a separate entry of the source.
Assays:
hΔHsp90β = biological target: T1, hΔHsp90β (Homo sapiens, UniProt P08238, DEL220-271/E274G/I272G/K273G/K275G); test: ITC direct binding to Hsp90β deletion mutant lacking the charged linker; conditions: 50 mM HEPES pH 7.5, 10 mM MgCl2, 30 °C, read-out: Observed Kd
T1 construct: human Hsp90β (1-724 Δ220-275); His6 (N); made in house; host or cells: E. coli BL21 Star (DE3)
Excerpt: The gene encoding human full-length Hsp90β was subcloned from T47D cell line cDNA, and human full-length CK2α was subcloned from MCF7 cell line cDNA, both a kind gift from Dr. Jonathan Lancaster, Moffitt Cancer Center. […] The deleted sections in the two Hsp90 genes were each replaced by four glycine residues. Hsp90α and Hsp90β were subcloned into the pET28a vector (Novagen), and p50^Cdc37 was subcloned into a modified pET28a vector containing a maltose-binding protein (MBP) solubility tag and a PreScission protease cleavage site using restriction enzymes BamHI and NotI (Fermentas) and T4 DNA ligase (Invitrogen) following the manufacturers’ instructions. BamHI was substituted with NdeI for full-length Hsp90β. p50^Cdc37 was also subcloned into the pGEX6P-1 vector (GE Healthcare) using the same procedure as above to provide an N-terminal GST-tag for GST pull-down and ELISA experiments. The plasmids were transformed into E. coli BL21 Star (DE3) (Hsp90α and Hsp90β, Invitrogen), Tuner (DE3) (p50^Cdc37 modified pET28a, Novagen), or BL21 (DE3) (p50^Cdc37 pGEX6P-1, Stratagene) expression strains. Transformed cells were grown in LB broth at 37 °C until the OD600 reached 0.4, then the temperature was lowered to 16 °C, and cells were induced with 0.1 mM IPTG at OD600 = 0.5–0.7. Cultures were then grown for 20–24 h before harvesting by centrifugation (30 min at 30,000× g, 4 °C).
(§1) Binding of p50^Cdc37 and small molecules to Hsp90 was analyzed using a MicroCal iTC200 titration calorimeter (GE Healthcare). Compounds or p50^Cdc37 were titrated into a solution of Hsp90 using the following concentrations: p50^Cdc37 (200 µM) into Hsp90 (20 µM), nucleotides (600 µM) into Hsp90 (30 µM), inhibitors (300 µM) into Hsp90 (30 µM). […] All experiments were conducted in 50 mM HEPES pH 7.5, 10 mM MgCl2 at 30 °C. For titration of inhibitors, the buffer contained 5% DMSO. […] Generation of heat due to dilution was determined in separate experiments by diluting protein into buffer and subtracting these as blank values for each injection. Corrected heat values were fitted using a nonlinear least squares curve-fitting algorithm (Microcal Origin 7.0) to obtain the stoichiometry (n), binding constants (Ka, Kd), and change in enthalpy for each enzyme-ligand interaction (ΔH).

hHsp90β-N = biological target: T2, hHsp90β-N (Homo sapiens, UniProt P08238); test: ITC direct binding to N-terminal domain of Hsp90β; conditions: 30 °C, read-out: Observed Kd
T2 construct: human N-terminal Hsp90β (1-219, denoted Hsp90β-N); His6 (N); made in house; host or cells: E. coli BL21 Star (DE3)
T2 sequence (P08238 1-219): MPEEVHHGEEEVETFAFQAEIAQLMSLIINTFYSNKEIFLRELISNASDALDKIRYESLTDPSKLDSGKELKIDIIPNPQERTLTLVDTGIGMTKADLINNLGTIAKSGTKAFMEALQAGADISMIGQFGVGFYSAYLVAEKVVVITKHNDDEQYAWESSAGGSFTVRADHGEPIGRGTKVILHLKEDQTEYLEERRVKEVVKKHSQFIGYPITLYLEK
Excerpt: The gene encoding human full-length Hsp90β was subcloned from T47D cell line cDNA, and human full-length CK2α was subcloned from MCF7 cell line cDNA, both a kind gift from Dr. Jonathan Lancaster, Moffitt Cancer Center. The genes encoding the deletion mutants human Hsp90α (1-732 Δ226-283), human Hsp90β (1-724 Δ220-275), human N-terminal Hsp90β (1-219, denoted Hsp90β-N), and human full-length p50^Cdc37 (residues 1-378) were synthesized by GeneArt AG with optimized codon usage for E. coli expression. The deleted sections in the two Hsp90 genes were each replaced by four glycine residues. […]
Binding of p50^Cdc37 and small molecules to Hsp90 was analyzed using a MicroCal iTC200 titration calorimeter (GE Healthcare). […] Typically, an initial 0.5 µL injection was followed by 19 injections of 2.2 µL of syringe solution (compound or p50^Cdc37) into a 200 µL protein solution of Hsp90 constantly stirred at 1000 rpm, and data were recorded for 180 s between injections. Generation of heat due to dilution was determined in separate experiments by diluting protein into buffer and subtracting these as blank values for each injection. […]

yHsp82-FL = yHsp82-FL with human p50^Cdc37; ref [30]; read-out: Reported Kd; cited from earlier work
hHsp90β-FL = biological target: T3, hHsp90β-FL (Homo sapiens, UniProt P08238); test: ITC direct binding to full-length Hsp90β; conditions: Figure 3
T3 construct: The gene encoding human full-length Hsp90β was subcloned from T47D cell line cDNA; His6 (N); made in house; host or cells: E. coli BL21 Star (DE3)
Method: as §1

Hsp90-p50^Cdc37 = biological target: T4, Hsp90-p50^Cdc37 (Homo sapiens, UniProt P08238); test: ELISA complex formation, immobilized GST-p50^Cdc37 and Hsp90β, unphosphorylated; type: binding
T4 construct: The gene encoding human full-length Hsp90β was subcloned from T47D cell line cDNA; made in house; host or cells: E. coli BL21 Star (DE3) (Hsp90β); E. coli BL21 (DE3) (GST-p50Cdc37)

ΔHsp90-p50^Cdc37 = biological target: T5, ΔHsp90-p50^Cdc37 (Homo sapiens, UniProt P08238, DEL220-271/E274G/I272G/K273G/K275G); test: ELISA complex formation, ΔHsp90; type: binding
T5 construct: human Hsp90β (1-724 Δ220-275); made in house; host or cells: E. coli BL21 Star (DE3) (ΔHsp90β); E. coli BL21 (DE3) (GST-p50Cdc37)
T5 sequence (P08238 with tags, fused parts or gaps DEL220-271/I272G/K273G/E274G/K275G): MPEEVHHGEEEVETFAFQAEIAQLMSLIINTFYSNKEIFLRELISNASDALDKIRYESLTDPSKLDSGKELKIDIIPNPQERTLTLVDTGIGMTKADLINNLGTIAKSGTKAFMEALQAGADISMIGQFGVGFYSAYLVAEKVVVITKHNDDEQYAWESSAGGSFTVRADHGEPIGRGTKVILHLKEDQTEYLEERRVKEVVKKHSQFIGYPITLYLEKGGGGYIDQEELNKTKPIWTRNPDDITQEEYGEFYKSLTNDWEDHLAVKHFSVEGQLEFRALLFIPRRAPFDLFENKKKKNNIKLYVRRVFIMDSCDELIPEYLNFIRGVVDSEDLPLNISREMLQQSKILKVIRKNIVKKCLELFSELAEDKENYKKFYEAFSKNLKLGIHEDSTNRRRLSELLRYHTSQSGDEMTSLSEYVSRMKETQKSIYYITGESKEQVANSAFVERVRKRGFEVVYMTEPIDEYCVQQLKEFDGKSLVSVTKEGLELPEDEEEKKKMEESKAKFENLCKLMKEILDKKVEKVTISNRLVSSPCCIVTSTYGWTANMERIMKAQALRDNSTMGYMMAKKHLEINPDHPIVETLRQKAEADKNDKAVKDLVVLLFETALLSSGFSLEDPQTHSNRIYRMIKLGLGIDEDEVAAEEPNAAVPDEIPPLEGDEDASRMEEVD

[1] = biological target: T6, ΔHsp90β interaction with GST-p50^Cdc37 (Homo sapiens, UniProt P08238, DEL220-271/E274G/I272G/K273G/K275G); test: GST pull-down of ΔHsp90β with GST-p50^Cdc37; type: binding
T6 construct: human Hsp90β (1-724 Δ220-275); made in house; host or cells: E. coli BL21 Star (DE3) (ΔHsp90β); E. coli BL21 (DE3) (GST-p50Cdc37)
T6 sequence (P08238 with tags, fused parts or gaps DEL220-271/I272G/K273G/E274G/K275G): as above
Method: GST pull-down experiments were carried out using 1 mL GST 4 FastFlow resin in 8 mL Flex columns (Kontes). All experiments were performed at room temperature by gravity flow. Loading and wash buffers contained 50 mM Tris pH 8, 50 mM KCl, 5 mM MgCl2, and 5% DMSO. The elution buffer contained an additional 10 mM reduced glutathione. […] The resin was washed with 20 CV wash buffer, and samples were eluted with 2 CV elution buffer. Eluted protein was analysed on 12% SDS-PAGE stained with Coomassie blue for visualization.

(p)Hsp90-(p)p50^Cdc37 = (p)Hsp90-(p)p50^Cdc37 (Homo sapiens, UniProt P08238); test: biochemical
(p)Hsp90-(p)p50^Cdc37, sequence (P08238 whole entry): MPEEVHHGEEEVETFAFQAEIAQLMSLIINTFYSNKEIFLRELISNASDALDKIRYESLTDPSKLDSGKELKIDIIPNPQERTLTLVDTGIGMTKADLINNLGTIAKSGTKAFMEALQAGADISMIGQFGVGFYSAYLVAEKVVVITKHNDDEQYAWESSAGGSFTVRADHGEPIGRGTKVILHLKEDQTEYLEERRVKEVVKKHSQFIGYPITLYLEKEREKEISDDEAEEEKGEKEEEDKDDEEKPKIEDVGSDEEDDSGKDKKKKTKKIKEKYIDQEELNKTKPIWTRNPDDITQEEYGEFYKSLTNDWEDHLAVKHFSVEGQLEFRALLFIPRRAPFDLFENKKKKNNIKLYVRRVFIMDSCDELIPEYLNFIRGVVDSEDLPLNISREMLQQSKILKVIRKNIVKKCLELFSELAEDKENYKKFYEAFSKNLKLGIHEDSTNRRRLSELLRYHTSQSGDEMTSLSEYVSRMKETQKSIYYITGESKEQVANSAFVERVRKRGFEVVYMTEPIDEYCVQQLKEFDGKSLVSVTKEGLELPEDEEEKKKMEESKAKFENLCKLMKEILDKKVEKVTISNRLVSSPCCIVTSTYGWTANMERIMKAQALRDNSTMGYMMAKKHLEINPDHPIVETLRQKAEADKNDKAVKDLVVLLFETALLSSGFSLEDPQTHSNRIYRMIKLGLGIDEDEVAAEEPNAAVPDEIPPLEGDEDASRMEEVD
Method: (§2) Phosphorylation of full-length Hsp90β and p50^Cdc37 was performed using purified full-length CK2α. The reaction was carried out in a 2.5 mL volume containing 50 µM Hsp90β or p50^Cdc37, 0.5 µM CK2α, 0.5 mM ATP, 20 mM Tris (pH 7.5), 50 mM KCl, and 10 mM MgCl2, and was incubated for 1 h at 30 °C. Samples were removed for analysis of phosphorylation status, and the proteins were re-buffered into 50 mM HEPES (pH 7.5), 150 mM NaCl, and 1 mM DTT (ELISA), or into 50 mM HEPES (pH 7.5) for ITC, using PD-10 gravity columns (GE Healthcare). Dephosphorylation was performed using 2.5 units of FastAP (alkaline phosphatase from Thermo Scientific) in buffer containing 10 mM Tris (pH 8.0 at 37 °C), 5 mM MgCl2, 100 mM KCl, 0.02% Triton-X 100, and 0.5 mg/mL BSA for 1 h at 37 °C.
(§3) Purified GST-p50^Cdc37 (4 µM) or control (purified GST alone, 4 µM) was added to glutathione-coated 96-well plates (Pierce) in 100 μL protein buffer (50 mM HEPES, pH 7.5, 150 mM NaCl, 10 mM MgCl2, 0.05% Tween-20, and 0.1% BSA) and incubated for 1 h at room temperature (triplicate wells per sample). […] The mixtures were then added to the wells (100 μL per well, in triplicates) and incubated for 1 h at room temperature before washing. The wells were incubated with anti-His6-tag mAb (1 mg/mL stock, Abcam), diluted 1:2000 in antibody buffer (50 mM HEPES pH 7.5, 150 mM NaCl, 10 mM MgCl2, 0.05% Tween-20, and 1% BSA) for 1 h, followed by secondary antibody (horse anti-mouse HRP-conjugated IgG, Cell Signaling Technology), diluted 1:5000 in antibody buffer, for 1.5 h at room temperature. After washing three times with 1× HBS-T and two times with 1× HBS, 200 μL HRP substrate (SigmaFast OPD) was added per well. The plates were incubated at room temperature, and the absorbance was read at 450 nm after 15 min and 30 min using a SpectraMax 340 PC plate reader (Molecular Devices). For dose-response measurements, absorption values were corrected for unspecific binding of Hsp90 to immobilized GST, and the raw data were fit to equation (1), where f(I) is the fraction of complex remaining, [I] is the concentration of the inhibitor, IC50 is the half maximal inhibitory concentration against Hsp90-p50^Cdc37 complex formation, n is the Hill slope coefficient, min is the signal remaining at high inhibitor concentrations and max is the signal of the uninhibited complex. Corrected absorption values (ΔOD) for the uninhibited Hsp90-p50^Cdc37 complex (unphosphorylated and phosphorylated) were in the range of 0.4–1.0. Data were expressed relative to the respective max value of Equation (1). (1) f(I)=min+(max−min)/1+([I]/IC50)^n

(p)Hsp90-p50^Cdc37 = (p)Hsp90-p50^Cdc37 (Homo sapiens, UniProt P08238); test: ELISA complex formation, CK2-phosphorylated Hsp90β
(p)Hsp90-p50^Cdc37, sequence (P08238 whole entry): as above
Method: as §2, §3

T1 sequence (P08238 with tags, fused parts or gaps DEL220-271/I272G/K273G/E274G/K275G): as the sequence (P08238 with tags, fused parts or gaps DEL220-271/I272G/K273G/E274G/K275G) above

For “p50^Cdc37: human full-length co-chaperone protein p50^Cdc37 (residues 1-378), unphosphorylated”, the Kd (hΔHsp90β) is listed as 1.1 µM, the Kd (hHsp90β-N) is listed as 4.4 µM and the Kd (yHsp82-FL) is listed as 1.5 µM.
With `CC(=O)O[C@@H]1C[C@H]2C(C)(C)C(=O)C=C[C@]2(C)[C@H]2CC[C@@]3(C)[C@H](c4ccoc4)OC(=O)[C@H]4O[C@]43[C@@]21C` [Gedunin] the “binding potential towards Hsp90β” value (hHsp90β-FL) was “failed to display binding potential”, the IC50 (Hsp90-p50^Cdc37; ELISA, Hsp90-p50^Cdc37 (unphosphorylated)) was greater than 1000 µM and the “inhibitory activity against the complex” value (Hsp90-p50^Cdc37; unphosphorylated or phosphorylated complex, in vitro) was “did not show appreciable inhibitory activity; also recorded: did not affect the interaction of Hsp90 with p50^Cdc37 in vitro”. The IC50 (ΔHsp90-p50^Cdc37) was greater than 1000 µM, the “effect on complex in GST pull-down” value ([1]; 1 mM nucleotide or 0.1 mM inhibitor, 15 min incubation, SDS-PAGE) was “ineffective” and the “protection of the complex from ADP in GST pull-down competition” value ([1]; in the presence of ADP, 0.1 mM radicicol) was “had no effect”. The IC50 ((p)Hsp90-(p)p50^Cdc37) was greater than 1000 µM and the IC50 ((p)Hsp90-p50^Cdc37) was greater than 1000 µM.

— article PMC4601640, “Stability of the Human Hsp90-p50^Cdc37 Chaperone Complex against Nucleotides and Hsp90 Inhibitors, and the Influence of Phosphorylation by Casein Kinase 2” (Molecules, 2015)
